From US20050208512A1, “Determining the chemosensitivity of cells to cytotoxic agents” (The Ohio State University Research Foundation, priority 2003, published 2005)
Entries after “also recorded” stand apart in the source; their conditions may differ. Read-outs that look alike come from different tables or passages of the source.

Key:
Type in all cases: cell-based, human
SK-MEL-28 cells = assay: SRB cytotoxicity assay in SK-MEL-28 cells transfected with ABCB5 or mock siRNA; conditions: for IC50: 4 days drug, SRB; for Fold reversal: mock vs ABCB5 siRNA; for effect of ABCB5 siRNA on chemosensitivity to the drug: result in words
Experimental: Human cancer cells were transfected with ABCB1, ABCB5 or mock siRNA. Drug activity was measured with the SRB assay. […] Results represent the mean of two or mean±SD of at least three independent experiments.
To identify suitable ABCB5 domains for siRNA-mediated gene silencing, siRNA duplexes against three target domains were synthesized and transfected into SK-MEL-28 cells.
Transfection was performed with TransMessenger Transfection Reagent (QIAGEN). To down-regulate ABCB1 or ABCB5, cancer cells were transfected with 0.3 or 0.6 μM siRNA. For RNA extraction, cells were harvested 48 hours after transfection.
(§1) Cytotoxicity assay. 5FU, Camptothecin, and Mitoxathone were obtained from Sigma. The other compounds were from Developmental Therapeutics Program at NCI. […] Anticancer drugs were added in a dilution series in 6 replicated wells. After 4 days, incubation was terminated by replacing the medium with 100 μl 10% trichloroacetic acid (Sigma, St. Louis, Mo.) in 1×PBS, followed by incubation at 4° C. for at least 1 hour. Subsequently, the plates were washed with water and air-dried. The plates were stained with 100 μl 0.4% SRB (Sigma) in 1% acetic acid for 30 min at room temperature. Unbound dye was washed off with 1% acetic acid. After air-drying and re-solubilization of the protein-bound dye in 10 mM Tris-HCl (pH 8.0), absorbance was read by a micro-plate reader at 570 nm. To determine the IC50 values, the absorbance of control cells without drug was set at 1. Dose-response curves were plotted using SigmaPlot software (RockWare, Golden, Colo.). Each experiment was performed independently at least three times.

NCI/ADR-RES cells = assay: SRB cytotoxicity assay in NCI/ADR-RES cells transfected with ABCB1 or mock siRNA; conditions: for Fold reversal: mock vs ABCB1 siRNA; for effect of ABCB1 siRNA on chemosensitivity to the drug: result in words
Experimental: (§2) Human cancer cells were transfected with ABCB1, ABCB5 or mock siRNA. Drug activity was measured with the SRB assay. IC50 is the concentration that produced 50% inhibition of cell growth compared to controls. Results represent the mean of two or mean±SD of at least three independent experiments.
(§3) We next compared growth-inhibitory IC50 values of siRNA-treated to that of mock-treated cells using a sulforhodamine B (SRB) cell proliferation assay.
(§4) Cell lines, obtained from Division of Cancer Treatment and Diagnosis at NCI, were cultured in RPMI 1640 containing 10% heat-inactivated fetal calf serum in a 5% CO2 incubator at 37° C. Transfection was performed with TransMessenger Transfection Reagent (QIAGEN). To down-regulate ABCB1 or ABCB5, cancer cells were transfected with 0.3 or 0.6 μM siRNA. For RNA extraction, cells were harvested 48 hours after transfection.
as §1

HCT-15 cells = assay: SRB cytotoxicity assay in HCT-15 cells transfected with ABCB1 or mock siRNA; conditions: for Fold reversal: mock vs ABCB1 siRNA
Experimental: as §2, §3, §4, §1

[1] = Homo sapiens, 96 h, ABCB5 siRNA, read-out: IC50 (μM) siRNA
[2] = Homo sapiens, 96 h, mock siRNA, read-out: IC50 (μM) Mock
[3] = Homo sapiens, 96 h, NCI/ADR-RES cells, ABCB1 siRNA, 4 days drug, SRB, read-out: IC50 (μM) siRNA
[4] = Homo sapiens, 96 h, NCI/ADR-RES cells, mock siRNA, 4 days drug, SRB, read-out: IC50 (μM) Mock
[5] = ABCB5 siRNA, read-out: IC50 (μM) siRNA
[6] = mock siRNA, read-out: IC50 (μM) Mock
[7] = Homo sapiens, 96 h, HCT-15 cells, ABCB1 siRNA, 4 days drug, SRB, read-out: IC50 (μM) siRNA
[8] = Homo sapiens, 96 h, HCT-15 cells, mock siRNA, 4 days drug, SRB, read-out: IC50 (μM) Mock

## O=c1[nH]cc(F)c(=O)[nH]1 [5FU, fluorouracil]
SK-MEL-28 cells; [1]
  IC50: 6.43 ± 2.67 µM
SK-MEL-28 cells; [2]
  IC50: 12.4 ± 4.6 µM
SK-MEL-28 cells
  Fold reversal: 1.96 ± 0.16
  effect of ABCB5 siRNA on chemosensitivity to the drug: Enhanced chemosensitivity
NCI/ADR-RES cells; [3]
  IC50: 1000 µM
NCI/ADR-RES cells; [4]
  IC50: 900 µM
NCI/ADR-RES cells; NCI/ADR-RES cells
  Fold reversal: 0.90
  effect of ABCB1 siRNA on chemosensitivity to the drug: unaffected; also recorded: no effect on potency

## COc1cc(NS(C)(=O)=O)ccc1Nc1c2ccccc2nc2ccccc12 [AMSA]
SK-MEL-28 cells
  effect of ABCB5 siRNA on chemosensitivity to the drug: no change in potency

## CCS(=O)(=O)O.CN(C)C(=O)c1cccc(COc2ccc(N3C(N)=NC(N)=NC3(C)C)cc2Cl)c1 [Baker's antifol, Baker's-soluble-antifol]
HCT-15 cells; HCT-15 cells, ABCB1 siRNA, 4 days drug, SRB, read-out: IC50 (μM) siRNA
  IC50: 33.7 ± 6.23 µM
HCT-15 cells; HCT-15 cells, mock siRNA, 4 days drug, SRB, read-out: IC50 (μM) Mock
  IC50: 48.2 ± 5.18 µM
HCT-15 cells; HCT-15 cells
  Fold reversal: 1.47 ± 0.29
NCI/ADR-RES cells; NCI/ADR-RES cells, ABCB1 siRNA, 4 days drug, SRB, read-out: IC50 (μM) siRNA
  IC50: 131 ± 36.7 µM
NCI/ADR-RES cells; NCI/ADR-RES cells, mock siRNA, 4 days drug, SRB, read-out: IC50 (μM) Mock
  IC50: 420 ± 120 µM
NCI/ADR-RES cells; NCI/ADR-RES cells
  Fold reversal: 3.23 ± 0.45

## C(=N\NC1=NCCN1)/c1c2ccccc2c(/C=N/NC2=NCCN2)c2ccccc12 [Bisantrene]
HCT-15 cells; HCT-15 cells
  Fold reversal: 1.39
HCT-15 cells; Homo sapiens, HCT-15, 96 h, read-out: IC50 (μM) Mock
  IC50: 7.63 µM
HCT-15 cells; Homo sapiens, HCT-15, 96 h, read-out: IC50 (μM) siRNA
  IC50: 5.47 µM
NCI/ADR-RES cells; Homo sapiens, NCI/ADR-RES, 96 h, read-out: IC50 (μM) Mock
  IC50: > 100 µM
NCI/ADR-RES cells; Homo sapiens, NCI/ADR-RES, 96 h, read-out: IC50 (μM) siRNA
  IC50: 23.7 µM
NCI/ADR-RES cells; NCI/ADR-RES cells
  Fold reversal: >4.22

## CC[C@@]1(O)C(=O)OCc2c1cc1n(c2=O)Cc2cc3cc(O)ccc3nc2-1 [CPT,10-OH]
SK-MEL-28 cells; [5]
  IC50: 0.14 ± 0.02 µM
SK-MEL-28 cells; [6]
  IC50: 0.48 ± 0.12 µM
SK-MEL-28 cells
  Fold reversal: 3.62 ± 1.35
  effect of ABCB5 siRNA on chemosensitivity to the drug: Enhanced chemosensitivity

## CC[C@@]1(O)C(=O)OCc2c1cc1n(c2=O)Cc2cc3ccccc3nc2-1 [Camptothecin]
SK-MEL-28 cells; [1]
  IC50: 0.06 µM
SK-MEL-28 cells; [2]
  IC50: 0.13 µM
SK-MEL-28 cells
  Fold reversal: 2.17

## COC1=C2C[C@@H](C)C[C@H](OC)[C@H](O)[C@@H](C)/C=C(\C)[C@H](OC(N)=O)[C@@H](OC)/C=C\C=C(/C)C(=O)NC(=CC1=O)C2=O [Geldanamycin, geldanamycin]
HCT-15 cells; HCT-15 cells
  Fold reversal: 1.26 ± 0.14
HCT-15 cells; [7]
  IC50: 8.2 ± 3.88 µM
HCT-15 cells; [8]
  IC50: 9.91 ± 3.96 µM
NCI/ADR-RES cells; [3]
  IC50: 3.6 ± 0.6 µM
NCI/ADR-RES cells; [4]
  IC50: 6.84 ± 1.08 µM
NCI/ADR-RES cells; NCI/ADR-RES cells
  Fold reversal: 1.95 ± 0.45

## O=C1c2c(O)ccc(O)c2C(=O)c2c(NCCNCCO)ccc(NCCNCCO)c21 [Mitoxathone]
SK-MEL-28 cells; [5]
  IC50: 0.79 µM
SK-MEL-28 cells; [6]
  IC50: 1.08 µM
SK-MEL-28 cells
  Fold reversal: 1.37
  effect of ABCB5 siRNA on chemosensitivity to the drug: no change in potency; also recorded: no effect on potency

## CC(=O)O[C@H]1C(=O)[C@@]2(C)[C@H]([C@H](OC(=O)c3ccccc3)[C@]3(O)C[C@H](OC(=O)[C@H](O)[C@@H](NC(=O)c4ccccc4)c4ccccc4)C(C)=C1C3(C)C)[C@]1(OC(C)=O)CO[C@@H]1C[C@@H]2O [Palitaxel, Paclitaxel]
HCT-15 cells; HCT-15 cells
  Fold reversal: 1.72
HCT-15 cells; [7]
  IC50: 0.18 µM
HCT-15 cells; [8]
  IC50: 0.31 µM
NCI/ADR-RES cells; [3]
  IC50: 1.06 µM
NCI/ADR-RES cells; [4]
  IC50: 8.01 µM
NCI/ADR-RES cells; NCI/ADR-RES cells
  Fold reversal: 7.57
  effect of ABCB1 siRNA on chemosensitivity to the drug: Enhanced chemosensitivity
